Data on seven molecules can be found in paper PMC3200184, “In vitro anti-plasmodial activity of Dicoma anomala subsp. gerrardii (Asteraceae): identification of its main active constituent, structure-activity relationship studies and gene expression profiling” (Malaria Journal, 2011).

The test system of data set [1] is P. falciparum chloroquine-sensitive D10 strain. Briefly: pLDH in vitro anti-malarial assay, D10 strain. Particulars: for IC50: Plasmodium falciparum; for Anti-malarial activity (in words): D10 strain, SAR discussion. It counts as cell-based, Plasmodium falciparum. The procedure: (§1) Asexual P. falciparum chloroquine-sensitive 3D7 and D10 cultures, as well as chloroquine-resistant K1 strain cultures, were maintained and synchronized according to established methods in an atmosphere consisting of 5% oxygen, 5% carbon dioxide and 90% nitrogen. The parasites were maintained at a 5% haematocrit in RPMI 1640 medium supplemented with 25 mM HEPES, 22 mM glucose, 0.0088% hypoxanthine, 40 ug/mL gentamycin (all Sigma) and 0.5% Albumax (Invitrogen).
(§2) The anti-plasmodial activities of the extracts and pure compounds were determined against the chloroquine-sensitive D10 and the chloroquine-resistant K1 strains via the parasite lactate dehydrogenase (pLDH) assay. All test substances were stored at -20°C prior to testing. […] Chloroquine diphosphate (Sigma) was used as a reference drug in all experiments. The test substances were evaluated as ten serial two-fold dilutions (0.2 - 100 μg/mL final concentration) in medium (two replicates per concentration point) in duplicate wells. […] Test solutions were mixed with suspensions of infected human red blood cells to achieve a final haematocrit of 1% and parasitaemia of 2% and incubated for 48 h in microtitre plates (250 uL final volume). Incubation conditions were as described above for the routine maintenance of the P. falciparum cultures. The IC50 values, serving as a measure for anti-plasmodial activities, were calculated by non-linear regression dose-response analysis using GraphPad Prism v.4.0 software.

In data set [2] the test system is P. falciparum chloroquine-resistant K1 strain. Briefly: microbe, parasite or virus in culture. Particulars: Plasmodium falciparum. It is filed as cell-based. The procedure:
as §1, §2

Data set [3] has as its system Chinese hamster ovary (CHO) cell line. As to the kind of experiment: MTT in vitro cytotoxicity assay. It counts as cell-based. Particulars: for IC50: Cricetulus griseus, read-out: CHO IC50 (μM) n = 2; for Mammalian toxicity, CHO (in words): SAR discussion. The procedure: Compounds were tested for in vitro cytotoxicity against a Chinese hamster ovary (CHO) cell line using the MTT [3-(4,5-dimethylthiazol-2-yl)-2,5-diphenyltetrazolium bromide] assay. The CHO cells were cultured in DMEM: Hams F-12 medium (1:1) supplemented with 10% heat-inactivated foetal calf serum (FCS) and gentamycin ([…]) (Highveld Biological, RSA). Samples were dissolved in 10% MeOH. Stock solutions (2 mg/mL) were prepared and were stored at -20°C until use. The samples were added to CHO cells as five ten-fold serial dilutions ranging from 100 - 0.01 μg/mL. A serial dilution of emetine (100 - 0.001 μg/mL) was used as a positive control. Cells were seeded in 96-well plates at a concentration of 10^5/mL (100 μL per well) and incubated at 37°C for 24 h in a humidified 5% CO2-air atmosphere. The medium was subsequently aspirated from the wells and replaced with 200 μL of the test compound dilutions. The microplates were incubated at 37°C for 48 h, after which 25 μL of sterile MTT (5 mg/mL in PBS) was added to each well and incubation was continued for 4 h at 37°C. Formazan crystals formed by viable cells were dissolved in DMSO and quantitated by measuring absorbance at 540 nm in a microtitre plate reader (Cambridge Technologies). Cell viabilities were calculated relative to reference wells containing no test compounds (positive cell controls) and no cells (background controls), plotted against log[test sample] and IC50 values derived by non-linear regression analysis using GraphPad Prism v.4.0 software.

In data set [4] the test system is P. falciparum 3D7. Briefly: Dose-response curves on P. falciparum 3D7 (IC99 for treatment). It is filed as cell-based, Plasmodium falciparum. Particulars: P. falciparum 3D7, determined from dose-response curves. The procedure:
as §1
A morphological comparison between compound 1 treated versus untreated parasites was performed to assess the effect of treatment and to establish sampling times, by examining the stage-specific progression of parasites across the intra-erythrocytic development cycle. The solvent (DMSO) or compound 1 was added in the window shortly after red blood cell (RBC) invasion and parasite development was monitored 6 hourly over a 48 h period using conventional Giemsa-stained smears. Fresh cultures were scaled up to 50 ml (5% hematocrit, 10% parasitemia), synchronized twice and treated with compound 1 in the window around invasion. Fifteen milliliters of culture was harvested at each of the stages used for transcriptional analyses (2, 6 and 12 hpt). Similar volumes were harvested from untreated P. falciparum 3D7 control cultures at the same time points. Parallel drug treatments were conducted, serving as biological replicates. […]

The test system of data set [5] is P. falciparum 3D7. As to the kind of experiment: Morphological analysis of treated ring-stage parasites (Giemsa smears). It is filed as cell-based, Plasmodium falciparum. As to conditions: 3D7, treated at early ring stage with 12.5 μM, followed over 48 h. The procedure:
A morphological comparison between compound 1 treated versus untreated parasites was performed to assess the effect of treatment and to establish sampling times, by examining the stage-specific progression of parasites across the intra-erythrocytic development cycle. The solvent (DMSO) or compound 1 was added in the window shortly after red blood cell (RBC) invasion and parasite development was monitored 6 hourly over a 48 h period using conventional Giemsa-stained smears. Fresh cultures were scaled up to 50 ml (5% hematocrit, 10% parasitemia), synchronized twice and treated with compound 1 in the window around invasion. Fifteen milliliters of culture was harvested at each of the stages used for transcriptional analyses (2, 6 and 12 hpt). Similar volumes were harvested from untreated P. falciparum 3D7 control cultures at the same time points. Parallel drug treatments were conducted, serving as biological replicates. RNA was extracted from the frozen erythrocyte pellets as described.
A morphological analysis was performed with dehydrobrachylaenolide to ascertain the point during intra-erythrocytic development at which P. falciparum 3D7 growth was affected. […] Based on these morphological observations and the apparent rapid effect of dehydrobrachylaenolide on P. falciparum development, sampling times for transcriptional analysis were subsequently determined as 2, 6 and 12 hpt. […]

For the next data set, the system named is NCI's 60-cell line panel. Details: method as in earlier work. As to conditions: selectivity trend towards the leukaemia sub-panel; cited from earlier work.
Data set [6] concerns induction of intracellular adhesion molecule-1 (ICAM-1). On the set-up: method as in PMID 12762788. Particulars: cited from earlier work.
The mark [7] stands for this setting: D10, 48 h, read-out: D10 IC50 (μM) n = 8.
Where [8] appears, read: K1, 48 h, read-out: K1 IC50 (μM) n = 4.
[9] abbreviates: D10, read-out: D10 strain IC50 (μM) n = 2.
[10] abbreviates: K1, read-out: K1 strain IC50 (μM) n = 2.
Where [11] appears, read: read-out: D10 strain IC50 (μM) n = 2, Table 2, D10, pLDH assay, parent compound n = 8.

A word on the IC50: it is the concentration at which inhibition is half-maximal.

Read-outs that look alike come from different tables or passages of the source.

As to `CCN(CC)CCCC(C)Nc1ccnc2cc(Cl)ccc12` (centres unmarked) [Chloroquine, Chloroquine diphosphate, reference compound], the IC50 was 0.038 µM in data set [1] (setting [7]); 0.2 µM in data set [2] (setting [8]); 35.8 µM in data set [3] (CHO, 48 h).

On to `C=C1C(=O)C=C[C@]2(C)CC[C@H]3C(=C)C(=O)O[C@H]3[C@@H]12` [Compound 1, 3-oxoeudesma-1,4(15),11(13)-triene-12,6α-lide], for which the IC50 in data set [1] (setting [7]) came out at 1.86 ± 0.254 µM; in data set [1] (setting [9]) it was 1.86 µM; in data set [1] (D10, read-out: IC50 against D10 strain), 0.455 µg/mL; in data set [2] (setting [8]), 4.09 ± 0.579 µM; in data set [2] (K1, read-out: IC50 against K1 strain), 1 µg/mL; in data set [2] (setting [10]) it was 4.09 µM. Also, the 50% inhibitory concentration (IC50) in data set [3] (CHO, 48 h) was determined as 17.2 µM; in data set [3] (CHO), 17.2 µM. In addition, the “IC99 (treatment concentration)” value in the data set with P. falciparum 3D7 [4] was 12.5 µM. For the same molecule, in the data set with P. falciparum 3D7 [5], the “Morphological effect on intra-erythrocytic development” value is “Treated parasites remained arrested in the ring phase”. The “Anti-cancer activity (in words)” value in the data set with NCI's 60-cell line panel is listed as “significant anti-cancer activity”. The “Activity toward ICAM-1 induction (in words)” value in data set [6] is reported as “inhibitory activity”.

In the case of `C=C1C(=O)O[C@@H]2C3=C(C)C(=O)C=C[C@]3(C)CC[C@@H]12` [Compound 2, (3aS,5aS,9bS)-5a,9-dimethyl-3-methylene-3a,4,5,5a-tetrahydronaphtho[1,2-b]furan-2,8(3H,9bH)-dione], the “Anti-malarial activity (in words)” value in data set [1] is listed as “six-fold less active”. Besides, the IC50 is 11.5 µM in data set [1] (setting [9]), 9.05 µM in data set [2] (setting [10]) and 7.01 µM in data set [3] (CHO).

As for `CC1=C2[C@H]3OC(=O)[C@@H](C)[C@@H]3CC[C@@]2(C)C=CC1=O` [Compound 3, santonin], the “Anti-malarial activity (in words)” value in data set [1] is on record as “devoid of any significant anti-malarial activity”. Further, the IC50 in data set [1] (setting [9]) is above 40 µM; in data set [3] (CHO) it was above 400 µM. In addition, the “Mammalian toxicity, CHO (in words)” value in data set [3] (CHO cells) was “devoid of any significant anti-malarial activity or mammalian toxicity”.

As for `C[C@@H]1C(=O)O[C@H]2[C@H]1CC[C@@]1(C)CCC(=O)[C@H](C)[C@H]21` [Compound 4, (3S,3aS,5aS,9R,9aS,9bS)-3,5a,9-trimethyl-octahydronaphtho[1,2-b]furan-2,8(3H,9bH)-dione], the “Anti-malarial activity (in words)” value in data set [1] was “lacking both activity and toxicity”. In addition, the IC50 is above 40 µM in data set [1] (setting [11]) and above 400 µM in data set [3] (Table 2, CHO cells, MTT). Besides, the “Mammalian toxicity, CHO (in words)” value in data set [3] (CHO cells) is “lacking both activity and toxicity”.

Consider `C=C1C(=O)C[C@H]2C1CCC1(C)CCC(=O)C(C)C21` (stereo partly drawn) [Compound 5, (9bS)-5a,9-Dimethyl-3-methyleneoctahydro-1H-cyclopenta[a]naphthalene-2,8(3H,9bH)-dione], for which, in data set [1], the “Anti-malarial activity (in words)” value is listed as “moderate anti-malarial activity”. Further, the IC50 came out at 22.1 µM in data set [1] (setting [11]) and 124 µM in data set [3] (Table 2, CHO cells, MTT). For the same molecule, in data set [3] (CHO cells), the “Mammalian toxicity, CHO (in words)” value was “substantially reduced”.

On to `C=C1C(=O)O[C@@H]2[C@H]3[C@@H](C)C(=O)C=C[C@]3(C)CC[C@@H]12` [Compound 6, (3aS,5aS,9R,9aS,9bS)-5a,9-dimethyl-3-methylene-3a,4,5,5a,9,9a-hexahydronaphtho[1,2-b]furan-2,8(3H,9bH)-dione], for which the “Anti-malarial activity (in words)” value in data set [1] was “no significant improvement in anti-malarial activity”. For the same molecule, the IC50 amounted to 16.9 µM in data set [1] (setting [9]) and 41.9 µM in data set [3] (CHO). Moreover, the “Mammalian toxicity, CHO (in words)” value in data set [3] (CHO cells) is “increased mammalian cell toxicity”.
